For this assay, the system named is CDR1 (B9J08_000164) and CDR4-1 (B9J08_000479). Nature of the assay: RT-qPCR of efflux gene expression. It is filed as cell-based, Candida auris. The following applies: azoffluxin alone, 3 hours. An excerpt:
FIGS. 3A-3B, and 4A-4B illustrate azoffluxin increases fluconazole (FLC) bioavailability by inhibiting Cdr1-mediated efflux in C. auris, as described above. FIG. 3A depicts the relative abundance of specific sterols determined in C. auris after an 18-hour treatment with the respective compounds (⋅ indicates combo treatment concentrations) using LC-MS. Values are plotted relative to the internal standard of cholesterol and error bars indicate standard deviation between technical triplicates. Significance was determined by an unpaired student t-test of each condition to untreated, (*) indicates a p-value<0.05 and (**) indicates a p-value<0.01. FIG. 3B depicts the intracellular concentrations of FLC and azoffluxin measured after treatment for 1 hour (conditions as in FIG. 3A) Error bars indicate standard deviation between technical triplicates. Significance was determined by an unpaired student t-test, (**) indicates a p-value<0.01. FIG. 4A depicts the quantified relative expression of a panel of putative efflux pumps in C. auris Ci6684. Expression of CDR1 (B9J08_000164), MDR1 (B9J08_003981), CDR4-1 (B9J08_000479), CDR4-2 (B9J08_002451), SNQ2-1 (B9J08_001125), and SNQ2-2 (B9J08_004452) was measured by RT-qPCR. […] FIG. 4B depicts expression of CDR1 (B9J08_000164) and CDR4-1 (B9J08_000479) measured by quantitative real-time PCR (RT-qPCR). […]

As for `C=C(C)C[C@@H](O)COc1cc2c(cc1C1(c3cc4c(cc3OC[C@H](O)CC(=C)C)OCO4)C(=O)Nc3cc(F)ccc31)OCO2` [CMLD012336], the “CDR1 and CDR4-1 transcript levels” value was “concentration-dependent increase”.

Source of the values: patent publication US11773086B2, “Fungal modulators” (TRUSTEES OF BOSTON UNIVERSITY, priority 2020, dated 2023).
